Structures are written as SMILES. Entries after “also recorded” stand apart in the source; their conditions may differ.

The test system of test [1] is apo e−/− mice. The test is described as follows: Serum lipoprotein profile (VLDL-C, HDL-C) by FPLC in apo e−/− mice. The class given is in vivo. Conditions: for HDL-C / VLDL-C: apo e−/− mice, one week. Here is the method:
(§1) Three- to four-week old apolipoprotein E deficient (apo E^−/−) mice were the progeny of breeding pairs of apo E knockout (apo EKO) mice obtained from Jackson Labs. (Bar Harbor, Me., USA). Mice were fed either regular rodent chow (5% fat and 0% cholesterol) (Teklad-LM 485, Harlan Teklad, Madison, Wis., USA), the Paigen's cocoa butter diet, or the Western diet (21.22% fat and 0.2% cholesterol) (Harlan Teklad, Madison, Wis., USA) for two weeks prior to treatment.
(§2) Animals were treated with test compounds by intraperitoneal injection daily for 7 days. A range of doses was administered. Control animals received vehicle alone. The effect of quinazoline derivatives on total cholesterol, LDL, HDL, liver enzymes, and glucose was analyzed. The mice tissues were also examined histologically.
Serum cholesterol profiles were examined by Fast Protein Liquid Chromatography (FPLC) using 100 μl of serum per run. The serum was passed over two Superose™ 6 HR 10/30 connected in tandem equilibrated in phosphate buffered saline (PBS), using the FPLC system from Pharmacia Biotech (Piscataway, N.J., USA) consisting of a controller LCC-501 plus connected to a UV detector (UV-MII), two P500 pumps, and a Frac-100 fraction collector. The FPLC was remotely controlled and operated by the FPLC director program operated on an IBM computer. The system was operated at a flow rate of 0.5 ml/minute and fractions were collected at 0.5 ml/fraction. Cholesterol concentration of each fraction was determined as described above and plotted against the fraction numbers to obtain the serum cholesterol profile.
To determine the serum concentrations of LDL/β-VLDL and HDL, the sums of the LDL/β-VLDL peak (fractions 29-35) and the HDL peak (fractions 53-63) were divided by 0.1. To obtain the IC50 and the minimum β-VLDL and HDL concentrations, the concentrations of β-VLDL and HDL were plotted against the dosage. Best fitted exponential decay curves were obtained using the equation: Concentration of HDL or LDL/β-VLDL=Aexp(−BX)+E, where A+E equals the concentration of HDL or LDL/β-VLDL at the dosage of 0 μg/day and E equals the mathematical minimum concentration of HDL or β-VLDL, and B equals 0.69/IC50. Best fitted curves were obtained using the Graphpad Inplot program, Graphpad Software, San Diego, Calif., USA.
(§3) On regular rodent chow, the serum total cholesterol level of apo e^−/− mice was 836±57 mg/dL (n=47). After one week therapy with 8 mg/kg/day WHI-P164 (n=12), the mean serum total cholesterol level was reduced to 551±29 mg/dL (p=0.02).
(§4) When challenged with a cholesterol-rich diet, these animals developed frank hypercholesterolemia due to delayed clearance of intestinal chylomicrons which shuttle the dietary cholesterol from the intestine to the liver. In the present study, all of the 46 ApoE-deficient mice that were fed Western diet (14) became severely hypercholesterolemic with a mean serum total cholesterol level of 1491±59 mg/dL. One week WHI-P164 therapy reduced the mean serum total cholesterol level of hypercholesterolemic apo e^−/− mice to 1194±84 mg/dL (p=O.006) at a dose level of 8 mg/kg/day (n=19) and to 876±57 mg/dL (p<0.0001) at a dose level of 40 mg/kg/day (n=17) (Table 3).

Test [2] has as its system C57B⅙ mice. The test is described as follows: Postprandial triglyceride accumulation after 36 hour fast. The class given is in vivo. Conditions: 40 mg/kg/day for 7 days. Here is the method: FIG. 5 is a graph showing inhibition of postprandial triglyceride accumulation by WHI-P164 treatment. C57B⅙ mice were treated with WHI-P164 at 40 mg/kg/day for 7 days, and fasted 36 hours with continuing treatment. […].
(§5) C57B⅙ and apoE-deficient mice were treated with intraperitoneal injections of 50 μl vehicle or 40 mg/kg WHI-P164 in 50 μl vehicle for 7 consecutive days, followed by a 36 hour fast to shut down intestinal chylomicron synthesis. […] Blood samples were taken at 0 and 4 hours after Triton WR1339 injection and plasma TG levels were measured enzymatically using a commercially available enzymatic kit (Sigma Chemical Co.). Alternatively, food was returned to the mice after a 36 hour fast and blood samples were collected at 0, 1, 3, 6, and 9 hours after returning the food. Accumulation of chylomicron-TG was determined as accumulation of plasma TG.
Inhibition reached statistical significance at 6 hours in vehicle treated mice having a plasma TG level of 272±25 mg/dL, n=5, as compared to a plasma TG level of 155±32 mg/dL, n=5, p=0.004 in WHI-P164 treated mice.

Test [3] has as its system apo e−/− mice. The test is described as follows: Serum total cholesterol in apolipoprotein E deficient mice. The class given is in vivo. As to conditions: for Mean serum total cholesterol: apo e−/− mice, 8 mg/kg/day, one week. Here is the method: as §1, §2
Serum total cholesterol was measured enzymatically using the cholesterol kit from Sigma Chemical Co. (St. Louis, Mo., USA). For liver tissue lipid measurements, lipids were extracted from homogenized hepatic tissues using the method of Bligh and Dyer (Bligh, et al., Can. J. Biochem. Phys. 1959, 37:911-917). One gram of liver tissue was homogenized in 1 ml of distilled water and extracted with 4 ml of chloroform/methanol (1:1, v/v). The chloroform phase containing the lipids was evaporated under a stream of nitrogen, the lipids dissolved in 100 μL of isopropanol, and subjected to cholesterol determination as described above. Triglyceride (TG) contents were determined using the TG kit from Sigma Chemical Co.
as §3, §4

The test system of test [4] is C57B⅙ mice. Briefly: In vivo hepatic VLDL-TG production using Triton WR1339 in C57B⅙ mice. Here is the method:
as §5
To determine if WHI-P164 prevent hepatic TG accumulation by relieving 9 block in VLDL-TG secretion or by inhibiting upstream TG synthesis, in vivo hepatic VLDL-TG synthesis was analyzed. Synthesis was determined by following the accumulation of VLDL-TG after shutting down VLDL catabolism with Triton WR1339 injection and intestinal chylomicron synthesis with a 36 hours fast.
C57B⅙ and apoE-deficient mice were treated with intra peritoneal injections of vehicle or 40 mg/kg WHI-P164 (in 50 μl vehicle) for 7 consecutive days, followed by a 36 hour fast to shut down intestinal chylomicron synthesis. […] Blood samples (50 μl) were taken at 0 and 4 hours after Triton WR1339 injection and plasma TG was measured enzymatically using a commercially available enzymatic kit (Sigma Chemical Co.), as previously reported (Kuipers, supra).

The mark [5] stands for this setting: hypercholesterolemic apo e−/− mice.

For the molecule `COc1cc2ncnc(C(=O)c3cccc(Br)c3)c2cc1OC` [WHI-P164, 4-(3′-bromobenzoyl)-6,7-dimethoxyquinazoline], the HDL-C stood at 90 ± 4 mg/dL in the test on apo e−/− mice [1] (Western diet, 40 mg/kg/day) and 50 ± 10 mg/dL in the test on apo e−/− mice [1] (rodent chow, 8 mg/kg/day). Further, the VLDL-C in the test with apo e−/− mice [1] (Western diet, 40 mg/kg/day) was 587 ± 4 mg/dL; in the test with apo e−/− mice [1] (rodent chow, 8 mg/kg/day), 190 ± 13 mg/dL. Besides, the “Reduction of β-VLDL/LDL-cholesterol levels” value in the test with apo e−/− mice [1] (setting [5]) is reported as 63%. Moreover, in the test with C57B⅙ mice [2] (6 hours after returning food to 36 hours fasted mice), the “Plasma TG level” value was determined as 155 ± 32 mg/dL. Besides, the Postprandial triglyceride accumulation result in the test on C57B⅙ mice [2] (C57B⅙ mice, fasted 36 hours, versus vehicle, 40 mg/kg/day) was “much reduced postprandial triglyceride accumulation; also recorded: Postprandial accumulation was inhibited”. For the same molecule, in the test with apo e−/− mice [3] (apo e−/− (C57B1/6) mice, Western diet two weeks, then drug 1 week at 40 mg/kg/day, 40 mg/kg/day), the Serum total cholesterol amounted to 876 ± 57 mg/dL. For the same molecule, the “Mean serum total cholesterol” value is 1194 ± 84 mg/dL in the test on apo e−/− mice [3] (Western diet) and 551 ± 29 mg/dL with apo e−/− mice [3] (regular rodent chow). Besides, the “Reduction of total cholesterol levels” value with apo e−/− mice [3] (setting [5]) was found to be 41%. The “Accumulation of VLDL-TG after Triton WR1339 treatment” value in the test on C57B⅙ mice [4] (C57B⅙ mice, 40 mg/kg, versus vehicle) was “significantly less accumulation of VLDL-TG than vehicle-treated control mice”. Also, the “Triglyceride, Pre-Triton WR 1339” value in the test on C57B⅙ mice [4] (apo e+/+ (C57B1/6), 40 mg/kg i.p. 7 days, 36 hour fast) is listed as 124 ± 12 (n = 5) mg/dL. For the same molecule, the “Triglyceride, Post-Triton WR 1339” value in the test with C57B⅙ mice [4] (apo e+/+ (C57B1/6), 40 mg/kg i.p. 7 days, 36 hour fast, 4 hours after Triton WR1339) is listed as 1031 ± 95 (n = 8) mg/dL.

For the origin of these results see patent publication US6410545B1, “Lipid lowering quinazoline dietary supplement composition” (Parker Hughes Institute, priority 1998, dated 2002).
